One data set can be described thus: in vitro. To be noted: human, Caco-2, pH 6.5. The procedure:
Caco-2 Permeability Assay:
The compound concentration was measured in the receiver as well as the donor well.

Data set [1] concerns human peripheral blood mononuclear cells (hPMPBC). Put plainly: Cytotoxicity assay with human peripheral blood mononuclear cells. In kind it is cell-based. The procedure: Cells were incubated with test substances at titrated concentrations ranging between 30 μM and 1.7 nM for 72 h. After the incubation period, the cells were fixed with 10% (wt/vol) trichloroacetic acid and stained for 30 min with sulforhodamine B (SRB) staining solution prior to removing unbound dye by washing repeatedly with 1% (vol/vol) acetic acid. The protein-bound dye is dissolved in 10 mM Tris base solution for OD (optical density) determination at 510 nm using a microplate reader.

For data set [2], the target named is T1, PDEδ (Homo sapiens (Human), UniProt O43924). Put plainly: Fluorescence polarization competition binding assay: displacement titration of labeled Atorvastatin probe for KD. Conditions: fluorescence polarization assay; activity classes; read-out: KD. The procedure: Example D.2: Displacement Titrations of Labeled Atorvastatin-Probe for the Determination of KD Values
Displacement Titrations of Labeled Atorvastatin-Probe for the Determination of KD Values:
The purification was followed by size exclusion gel filtration on a Superdex 75 S26/60 column using buffer A (25 mM Tris-HCl, pH 7.5, 150 mM NaCl and 3 mM DTE).
A general note: Fluorescence polarisation rises when a labelled molecule tumbles more slowly, as on binding a larger partner.

The target of data set [3] is interaction between mCherry-PDE6δ and mCitrine-RheB (Homo sapiens (Human), UniProt O43924). Kind of data set: FLIM-FRET of mCitrine-RheB and mCherry-PDE6δ interaction in living MDCK cells. In kind it is cell-based. Conditions: fit of dose-response of interacting fraction α, ± s.e.m., read-out: apparent "in-cell" KD.
Data set [4] concerns colorectal cancer cell lines DiFi, HCT-116, Hke3, Hkh2, HT29 and SW480. Kind of data set: Real time cell analysis (RTCA) proliferation of colorectal cancer cell lines. Type of data set: cell-based, human.
The test system of data set [5] is mCitrine-KRas in MiaPaCa-2 cells. Put plainly: KRas localization analysis by confocal microscopy. In kind it is cell-based, human. To be noted: 5 μM; MiaPaCa-2 cells ectopically expressing mCitrine-KRas. The procedure: Panc-TU-1, MiaPaCa-2, PANC-1 and BxPC-3 cell lines were cultured in DMEM supplemented with 10% fetal calf serum, 1% L-glutamine (PAN-Biotech) and 1% non-essential amino acids (PAN-Biotech). The cells were maintained in a humidified incubator at 37° C. and 5% CO2. For microscopy, cells were seeded in four-well Lab-Tek chambers (Thermo Scientific) in DMEM without phenol red, supplemented with 25 mM HEPES. Transfection was performed with either Effectene (Qiagen) or Lipofectamine 2000 (Invitrogen). Confocal images were acquired with a confocal laser-scanning microscope (FV1000, Olympus). For detection of mCitrine-RheB and mCitrine-KRas, the sample was excited using the 488 nm wavelength of an argon laser. Fluorescence signal was collected through an oil immersion objective (×60/1.35 UPlanSApo, Olympus) and spectrally filtered by a band pass filter from 500 nm to 550 nm. For detection of mCherry-PDEδ, a 561 nm diode laser was used for excitation. The fluorescence emission was spectrally filtered by a band pass filter from 600 to 700 nm. Confocal images of cells were segmented into plasma membrane and cytoplasm whereby the plasma membrane segment contained one third of all pixels. The mean intensity of plasma membrane and cytoplasm were normalized to the total mean intensity of each cell at each time point (FIG. 4C).

Data set [6] relates to colorectal cancer cell lines (HCT-116, Hke3, SW480, Hkh2, DiFi, HT29). Put plainly: Apoptosis / cell viability assay (7-AAD staining, flow cytometry). Conditions: all tested cell lines (Hkh2, DiFi, HT29). Type of data set: cell-based, human. The procedure: Apoptosis assays are performed on a LSR II flow cytometer (BD Bio-science). For this, cells are seeded in 6-well plates with an amount of 2×10^5 cells per well. Cells are treated with different concentrations of compound 19 (Deltasonamide 2) for 24 h. DMSO is used as a control. Subsequently, the supernatant is collected in FACS vials and the cells are washed with 1 mL PBS. Afterwards, cells are detached with 0.5 mL Accutase™ (EMD Millipore Corporation). The detached cells are resuspended in 1 mL PBS and transferred to the respective FACS vials. The vials are centrifuged at 200 g for 5 min. The supernatant is discarded and the cells are washed twice with PBS. Cell pellets are re-suspended in 100 μL PBS containing 5 μL of 7-AAD. Samples are vortexed and incubated in the dark at RT for 15 min. Afterwards, 200 μL PBS are added and the samples are transferred to fresh FACS vials through filter lids. The samples are measured within one hour after transfer using 488 nm as excitation wave length and the emission filter 695/40. The measurements are acquired and gated with the BD FACSDiva™ software.
(Flow cytometry measures light scatter and fluorescence of single cells or particles in a stream.)

A further data set deals with Panc-Tu-I cells. Put plainly: Real time cell analysis (RTCA) proliferation. In kind it is cell-based, human. The procedure: (§1) Panc-TU-1, MiaPaCa-2, PANC-1 and BxPC-3 cell lines were cultured in DMEM supplemented with 10% fetal calf serum, 1% L-glutamine (PAN-Biotech) and 1% non-essential amino acids (PAN-Biotech). The cells were maintained in a humidified incubator at 37° C. and 5% CO2. For microscopy, cells were seeded in four-well Lab-Tek chambers (Thermo Scientific) in DMEM without phenol red, supplemented with 25 mM HEPES. Transfection was performed with either Effectene (Qiagen) or Lipofectamine 2000 (Invitrogen). RTCA measurements of Panc-TU-1, MiaPaCa-2, PANG-1 and BxPC-3 cell lines were performed on a Dual Plate xCELLigence instrument (Roche Applied Science, Indianapolis, Ind.). This device measures a dimensionless cell index which is based on impedance. […] After seeding, cells were allowed to settle for 15 min at room temperature before insertion into the xCELLigence instrument in a humidified incubator at 37° C. with 5% CO2. […] The impedance was measured in 15 min intervals for up to 100 h. Assays were performed in triplicates, each containing two technical duplicates. The cell index was normalized to 1 at the time point of drug administration.

The test system of a further data set is MiaPaCa-2 cells. Kind of data set: Real time cell analysis (RTCA) proliferation. Type of data set: cell-based, human. The procedure: as §1
The target of data set [7] is T1, PDEδ. Put plainly: Cellular thermal shift assay / thermal protein profiling in Jurkat cell lysate. To be noted: 1 μM.
Data set [8] concerns the target RPL31 (Ribosomal Protein L31) (Homo sapiens (Human), UniProt P62899). The description is as above. To be noted: read-out: shift in melting temperature.
Setting [9] is: even at submicromolar concentrations.

Here are results for 3 molecules from patent US10913710B2, “Benzene disulfonamide for the treatment of cancer” (priority 2017, dated 2021).

Broadly, the Papp A→B is the apparent permeability from the apical to the basolateral side of a cell layer. Read a low Papp A→B as poor permeation. What is called Papp B→A is how fast a substance crosses the layer from the basolateral side. As to `CNc1nccc(CN(CC2CCNCC2)S(=O)(=O)c2ccc(S(=O)(=O)N(Cc3ccc(Cl)cc3)C3CCCC3)cc2)n1` [Compound 16, N1-(4-Chlorobenzyl)-N1-cyclopentyl-N4-((2-(methylamino)pyrimidin-4-yl)methyl)-N4-(piperidin-4-ylmethyl)benzene-1,4-disulfonamide], in the data set “in vitro”, the Papp A→B at 2 h, 10 µM is 1.6 ×10⁻⁶ cm/s and the Papp B→A at 2 h, 10 µM worked out at 13.7 ×10⁻⁶ cm/s. In addition, in [1], the “concentration up to which hPMBCs proliferation is not impaired” value was no less than 30 µM.
The term efflux ratio denotes the permeability from basolateral to apical divided by that in the opposite direction, in the common usage. Regarding `CNc1nccc(CN([C@H]2CC[C@H](N)CC2)S(=O)(=O)c2ccc(S(=O)(=O)N(Cc3ccc(Cl)cc3)C3CCCC3)cc2)n1` [Compound 19, N1-((trans)-4-aminocyclohexyl)-N4-(4-chlorobenzyl)-N4-cyclopentyl-N1-((2-(methylamino)pyrimidin-4-yl)methyl)benzene-1,4-disulfonamide], the Kd was 1 to 30 nM on PDEδ [2] and 61 ± 5 nM in [3]. Besides, the “proliferation (RTCA)” value in data set [4] (DiFi, HCT-116, Hke3, Hkh2, HT29 and SW480, even at lower micromolar concentrations) is listed as “strongly reduced proliferation”; in the data set with Panc-Tu-I cells (setting [9]) it was “strongly reduced proliferation”; in the data set on MiaPaCa-2 cells (setting [9]), “strongly reduced proliferation”. Also, in data set [4] (cell lines containing oncogenic KRas mutations (HCT-116, Hke3, and SW480)), the “concentrations showing growth inhibitory effect and reduced cell viability” value was in the range of 1.5 to 3 µM. The “KRas plasma membrane localization” value in data set [5] is recorded as “loss of KRas plasma membrane (PM) localization”. Moreover, the “concentration showing unspecific toxicity” value in data set [6] is listed as “above 6 μM”. Also, in the data set on Panc-Tu-I cells (at 1.5 μM), the reduction of growth entry is recorded as “about 50%”. For the same molecule, in the data set on MiaPaCa-2 cells (at 750 nM), the “reduction of growth rate” value is on record as “about 50%”. The same molecule yielded a Papp A→B at 2 h, 10 µM in the data set “in vitro” of 0.9 ×10⁻⁶ cm/s. Moreover, in “in vitro”, the Papp B→A at 2 h, 10 µM was 2.7 ×10⁻⁶ cm/s. For the same molecule, the efflux ratio at 2 h, 10 μM in “in vitro” stood at 2.9. Moreover, the “concentration up to which hPMBCs proliferation is not impaired” value in [1] was no less than 30 µM.
For `Nc1cc(CN(CC2CCNCC2)S(=O)(=O)c2ccc(S(=O)(=O)N(Cc3ccc(Cl)cc3)C3CCCC3)cc2)ccc1C(=O)O` [Compound 22, 2-amino-4-(((4-(N-(4-chlorobenzyl)-N-cyclopentylsulfamoyl)-N-(piperidin-4-ylmethyl)phenyl)sulfonamido)methyl)benzoic Acid], the Kd at PDEδ [2] was in the range of 1 to 30 nM. For the same molecule, on PDEδ [7] (5492 proteins identified), the “selectivity of protein engagement (only PDE6δ and RPL31 engaged)” value is recorded as “very selective inhibitor”. For the same molecule, on PDEδ [7] ([…]), the “higher signal intensities of soluble PDEδ compared to DMSO controls” value is reported as 26-28%. For the same molecule, in “in vitro”, the Papp A→B at 2 h, 10 µM was 0.9 ×10⁻⁶ cm/s; the basolateral-to-apical permeability (Papp B→A) at 2 h, 10 µM stood at 0.6 ×10⁻⁶ cm/s; the efflux ratio at 2 h, 10 μM came to 0.6. In addition, the ΔTm at 1 µM in data set [8] was 3 °C.
